Our source for the Km values is paper PMC12510601, “Transcriptomic analysis reveals that pyruvate kinase potentially plays a key role in the differentiation of Spirometra mansoni proglottids by regulating the glycolysis pathway” (PLOS Neglected Tropical Diseases, 2025).

The subject of the experiment is rSmPK1 (recombinant SmPK1). As to the kind of experiment: […],4-dinitrophenylhydrazine pyruvate assay, Michaelis-Menten / Lineweaver-Burk. The format is biochemical, Spirometra mansoni. Conditions: pH 8.0, 37 °C.

In the case of `Nc1ncnc2c1ncn2[C@@H]1O[C@H](COP(=O)(O)OP(=O)(O)O)[C@@H](O)[C@H]1O` [ADP], the Michaelis-Menten constant (Km) (varied ADP with PEP) is 540 µM.

Take `C=C(OP(=O)(O)O)C(=O)O` [PEP]: where the note is “varied PEP with ADP”, the Km amounted to 1270 µM.
